US20240307415A1, “STEROID COMPOUND, AND PHARMACEUTICAL COMPOSITION THEREOF AND USE THEREOF” (JIANGSU SIMCERE PHARMACEUTICAL CO., LTD., priority 2021, published 2024)

Tests used:
Assay type in all cases: in vitro ADME
[1] = Metabolic stability in human liver microsomes; details: pH 7.4, 1 μM compound, 0.5 mg/mL microsome, NADPH 1 mM, 37° C., read-out: Human liver microsome stability t1/2
From the text: • 1. Human liver microsome (Corning 452117), beagle dog liver microsome (XENOTECH D1000), SD rat liver microsome (XENOTECH R1000), and CD-1 mouse liver microsome (XENOTECH M1000) • 2. Na2HPO4 (Tianjin Guangfu Fine Chemical Research Institute 20180130) • 3. KH2PO4 (Tianjin Guangfu Fine Chemical Research Institute 20180920) • 4. MgCl2 (Tianjin Guangfu Fine Chemical Research Institute 20191216) • 5. NADPH (Solarbio 1216C022) • 6. Positive control compound verapamil (Sigma MKBV4993V) • 7. AB Sciex API4000 liquid chromatography-mass spectrometry system
• 1. Preparation of 100 mM phosphate-buffered saline (PBS): 7.098 g Na2HPO4 was weighed. 500 mL pure water was added. The mixture was dissolved by sonication to give solution A. 3.400 g KH2PO4 was weighed. 250 mL pure water was added. […]
All data were calculated by Microsoft Excel software. The peak area was detected through an extracted ion chromatogram. The in vitro half-life (t1/2) of the compound was determined by linear fitting of the natural logarithm of compound elimination percentage over time.
In vitro half-life (t1/2) was calculated by the slope k: […]
The in vitro intrinsic clearance (in μL/min/mg protein) was calculated using the following formula: […]

[2] = Plasma protein binding rate, human plasma (equilibrium dialysis); details: pH 7.4, equilibrium dialysis 6 h, 37° C.
Protocol: (§1) The protein binding rates of the compound of the present invention in plasma of 5 species (humans, monkeys, dogs, rats, and mice) were determined using the following method.
(§2) • 1. Human plasma (BioIVT), monkey plasma (ADME-plasma-pooled monkey-05212020), beagle dog plasma (BioIVT), SD rat plasma (BioIVT), and CD-1 mouse plasma (BioIVT) • 2. Na2HPO4 (Sigma S5136-500G) • 3. NaH2PO4 (Sigma S3139-500G) • 4. NaCl (Sigma S5886-IKG) • 5. 96-well equilibrium dialysis plate (HTDialysis LLC, Gales Ferry, CT, HTD96B) and equilibrium dialysis membrane (MWCO 12-14K, 1101) • 6. Positive control compound warfarin • 7. ABI QTrap 5500 liquid chromatography-mass spectrometry system
(§3) • 1. […] Preparation of a dialysis membrane: the dialysis membrane was soaked in ultrapure water for 60 min to separate the membrane into two pieces, then soaked with 20% ethanol for 20 min, and finally soaked with dialysis buffer for 20 min. • 3. Preparation of plasma: the frozen plasma was quickly thawed at room temperature and then centrifuged at 3,220 g at 4° C. for 10 min to remove clots, and the supernatant was collected to a new centrifuge tube. The pH of the plasma was measured and recorded. The plasma with pH 7-8 was used. • 4. […]
(§4) The peak areas of the compound on the buffer side and the plasma side were measured. The plasma protein binding rate of the compound was calculated by the following formula: […]

[3] = Plasma protein binding rate, mouse plasma (equilibrium dialysis); details: CD-1, mouse, pH 7.4, equilibrium dialysis 6 h, 37° C.
Protocol: as §1, §2, §3, §4

SMILES: C[C@]12C=CC(=O)C=C1CC[C@@H]1[C@@H]2[C@@H](O)C[C@@]2(C)[C@H]1C[C@H]1O[C@@H](c3ccc(Cc4cc(N)c5c(c4)CCO5)cc3)O[C@]12C(=O)CO [Compound 009, (6aR,6bS,7S,8aS,8bS,10R,11aR,12aS,12bS)-10-(4-((7-amino-2,3-dihydrobenzofuran-5-yl)methyl)phenyl)-7-hydroxy-8b-(2-hydroxyacetyl)-6a,8a-dimethyl-6a,6b,7,8,8a,8b,11a,12,12a,12b-decahydro-1H-naphtho[2′,1′:4,5]indeno[1,2-d][1,3]dioxolan-4(2H)-one]
- half-life at 1 μM [1]: 37.8 min
- fraction unbound at 6 h, 1 μM [2]: 0.002
- fraction unbound at 6 h, 1 μM [3]: 0.002
